From patent US11192865B2, “Benzosulfonyl compounds” (Vivace Therapeutics, Inc., priority 2017, dated 2021) come the findings set out here.

This test has as its system 8XTBD luciferase reporter. The experiment in a line: YAP Reporter Assay. In kind it is cell-based. The conditions noted are these: Homo sapiens, HEK-293T; HEK293T cells stably transfected with 8XTBD luciferase reporter and pRLTK; 24-hr incubation; starting from 3 μM, 1:3 dilution, 10 points; read-out: Firefly Luciferase IC50. In a few lines:
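HEK293T cells stably carrying the 8XTBD firefly luciferase reporter and TK-renilla control received compounds at a 10-point, 1:3 series from 3 μM (final) in quadruplicate. After 24 h at 37° C, Dual-Glo luminescence was read. IC50 and maximal inhibition were reported separately for firefly and renilla signals.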
(In a reporter assay the amount or activity of a reporter protein is the signal.)

Consider `CNS(=O)(=O)c1ccc(NC2CCCCC2)c(-c2nnn(CCF)n2)c1` [Compound 40, 4-(cyclohexylamino)-3-(2-(2-fluoroethyl)-2H-tetrazol-5-yl)-N-methylbenzenesulfonamide], for which the IC50 was at most 100 nM.
Regarding `CNS(=O)(=O)c1ccc(NC2CCCCC2)c(-c2nnnn2C2CCCN(C(=O)OC(C)(C)C)C2)c1` (stereo not drawn) [Compound 60, tert-butyl 3-(5-(2-(cyclohexylamino)-5-(N-methylsulfamoyl)phenyl)-1H-tetrazol-1-yl)piperidine-1-carboxylate], the IC50 was over 3000 nM.
For `CC(C)(C)NS(=O)(=O)c1ccc(NC2CCCCC2)c(-c2nn[nH]n2)c1` [Compound 1, N-(tert-butyl)-4-(cyclohexylamino)-3-(2H-tetrazol-5-yl)benzenesulfonamide], the IC50 was over 3000 nM.
As for `CNS(=O)(=O)c1ccc(Nc2cccc(C(F)(F)F)c2)c(-c2nnn(C)n2)c1` [Compound 92, N-methyl-3-(2-methyl-2H-tetrazol-5-yl)-4-((3-(trifluoromethyl)phenyl)amino)benzenesulfonamide], the IC50 was at most 100 nM.
With `CNS(=O)(=O)c1ccc(Nc2ccc(C(F)(F)F)cc2)c(-c2nnn(Cc3ccccc3F)n2)c1` [Compound 137, 3-[2-[(2-Fluorophenyl)methyl]tetrazol-5-yl]-N-methyl-4-[4-(trifluoromethyl)anilino]benzene-sulfonamide] the figure was at most 100 nM; with `CNS(=O)(=O)c1ccc(Nc2cccc(F)c2F)c(-c2nnn(C)n2)c1` [Compound 104, 4-((2,3-difluorophenyl)amino)-N-methyl-3-(2-methyl-2H-tetrazol-5-yl)benzenesulfonamide], 100 to 1000 nM; with `CNS(=O)(=O)c1ccc(NC2CCCCC2)c(-c2cn(C)nn2)c1` [Compound 58, 4-(cyclohexylamino)-N-methyl-3-(1-methyl-1H-1,2,3-triazol-4-yl)benzenesulfonamide], at most 100 nM.
On to `CNS(=O)(=O)c1ccc(Nc2cccc(C(F)(F)F)c2)c(-c2ccnc(N)c2)c1` [Compound 152, 3-(2-Aminopyridin-4-yl)-N-methyl-4-((3-(trifluoromethyl)phenyl)amino) benzenesulfonamide], for which the IC50 fell in the range of 1000 to 3000 nM.
As for `CNS(=O)(=O)c1ccc(NC2CCCCC2)c(-c2nnn(C3CCCNC3)n2)c1` (stereo not drawn) [Compound 74, 4-(cyclohexylamino)-N-methyl-3-(2-(piperidin-3-yl)-2H-tetrazol-5-yl)benzenesulfonamide], the figure is 100 to 1000 nM; as for `CNS(=O)(=O)c1ccc(NC2CCC(F)(F)CC2)c(-c2nnn(C)n2)c1` [Compound 72, 4-((4,4-difluorocyclohexyl)amino)-N-methyl-3-(2-methyl-2H-tetrazol-5-yl)benzenesulfonamide], at most 100 nM; as for `CNS(=O)(=O)c1ccc(Nc2cccc(SC(F)(F)F)c2)c(-c2cn(C)cn2)c1` [Compound 141, N-methyl-3-(1-methylimidazol-4-yl)-4-[3-(trifluoromethylsulfanyl)anilino] benzenesulfonamide], at most 100 nM.
With `CNS(=O)(=O)c1ccc(Nc2ccc(C(F)(F)F)cc2)c(-c2nnn(CCOCc3ccccc3)n2)c1` [Compound 115, 3-(2-(2-(benzyloxy)ethyl)-2H-tetrazol-5-yl)-N-methyl-4-((4-(trifluoromethyl)phenyl)amino)benzenesulfonamide], the IC50 lay in the range of 100 to 1000 nM.

Broadly, the IC50 is the concentration at which inhibition is half-maximal.
